The test deals with GCS enzyme (glucosylceramide synthase) contained within Golgi preparations isolated from human A375 malignant melanoma skin cells (Homo sapiens (Human), UniProt Q16739). Nature of the test: UDP-Glo glucosylceramide synthase biochemical assay. The note with it: 1.5 μg crude golgi preparation from A375 cells; C6 ceramide and UDP-glucose at 2×Km; 20 h incubation at room temperature; UDP detected by luminescence. The text has this: UDP-Glo™ Glucosylceramide Synthase Biochemical Assay
Chain of GCS enzyme (glucosylceramide synthase) contained within Golgi preparations isolated from human A375 malignant melanoma skin cells (Q16739 whole entry): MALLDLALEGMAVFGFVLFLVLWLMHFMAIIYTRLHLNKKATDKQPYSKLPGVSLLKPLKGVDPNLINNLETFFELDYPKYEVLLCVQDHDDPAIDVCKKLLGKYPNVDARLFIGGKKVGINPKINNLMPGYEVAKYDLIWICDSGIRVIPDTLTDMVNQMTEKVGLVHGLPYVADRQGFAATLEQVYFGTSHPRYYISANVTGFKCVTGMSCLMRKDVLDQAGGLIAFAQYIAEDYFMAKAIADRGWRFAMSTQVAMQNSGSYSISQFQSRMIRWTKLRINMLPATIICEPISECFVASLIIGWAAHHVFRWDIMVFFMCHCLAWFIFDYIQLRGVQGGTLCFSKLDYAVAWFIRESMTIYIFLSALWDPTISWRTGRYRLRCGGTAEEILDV
A UDP-Glo™ glucosylceramide synthase biochemical assay was utilized to evaluate the effect of test compounds on the activity of endogenous levels of GCS enzyme contained within Golgi preparations isolated from human A375 malignant melanoma skin cells. The UDP-Glo™ glucosylceramide synthase assay uses UDP-Glucose as a nucleotide-glycosyl donor and ceramide as substrate acceptor molecules. In the reaction, glucosylceramide synthase (GCS) transfers glucose from UDP-Glucose to ceramide. Glucosylceramide and UDP are released as products.
Using Promega's UDP-Glo™ Glycosyltransferase assay kit (Promega Corporation, Madison, WI, USA (Promega)), GCS activity was indirectly measured by detecting the amount of UDP produced. An aliquot of GCS enzyme (1.5 μg crude golgi preparation, total protein) and titrated test compound were aliquoted to each well and incubated for 30 minutes at room temperature. Substrate mixture was prepared by mixing C6 ceramide (Avanti Polar Lipids, Alabaster, AL USA (Avanti)) (micelles prepared at 0.6 mM in 0.6 mM DOPC) and UDP-glucose (20 μ.M; Promega), at concentrations equivalent to 2×Km, in assay buffer (25 mM HEPES (pH 7.5), 50 mM KCl, 5 mM MgCl2). An equivalent volume of substrate mixture was then added to each well. Following a 20 h incubation at room temperature to allow for GCS turnover of substrate, an equal volume of UDP detection reagent (Promega) was added to each well and incubated for an additional 75 minutes at room temperature to simultaneously convert the accumulated UDP product into ATP and generate light in a luciferase reaction. The generated light was detected using a luminometer. […] luminescence values (RLUs) were normalized to mean “min” and “max” effects, as determined on each plate. “Min” was defined as the mean of the values of the wells treated with vehicle (DMSO) and which represent 0% inhibition; “max” was defined as the mean of the values of the wells treated with a reference inhibitor and which represent the 100% effect. Values for % Emax and EC50 were determined by best-fitting the normalized data to a curve in Activity Base along a four-parameter logistic nonlinear regression (4PL) model (based on the Levenberg-Marquardt algorithm and defined by the equation below): […]
where: n is 4PMin (bottom of the curve); m is 4PMax (top of the curve); i is IP (inflection point of curve); and p is slope. See Levenberg, K., “A Method for the Solution of Certain Problems in Least Squares”, Quart. Appl. Math. 2, (1944), pp 164-168 and Marquardt, D., “An Algorithm for Least Squares Estimation on Nonlinear Parameters”, SIAM J. Appl. Math. 11, (1963) pp 431-441.
What is called EC50 is the concentration needed to bring the measured effect to its halfway point. Regarding `O=C(NC12CCC(O)(CC1)C2)c1cc2cccc(-c3cc(Cl)cnc3OC(F)F)c2o1` [Compound 6, 7-[5-chloro-2-(difluoromethoxy)-3-pyridyl]-N-(4-hydroxynorbornan-1-yl)benzofuran-2-carboxamide], the EC50 stood at 0.87 nM. Regarding `Cc1nn(C)c(C)c1-c1cccc2cc(C(=O)NC3CN4CCC3CC4)oc12` (racemic) [Compound 37, (R and S)-N-(quinuclidin-3-yl)-7-(1,3,5-trimethyl-1H-pyrazol-4-yl)benzofuran-2-carboxamide], the EC50 was 2.4 nM. For `Cc1cccc(NC(=O)c2cc3cccc(-c4c(C)nn(C)c4C)c3o2)n1` [Compound 12, N-(6-methyl-2-pyridyl)-7-(1,3,5-trimethylpyrazol-4-yl)benzofuran-2-carboxamide], the EC50 amounted to 21 nM. As to `O=C(Nc1ccc2cnccc2n1)c1cc2cccc(-c3ccccc3OCC(F)(F)F)c2o1` [Compound 22, N-(1,6-naphthyridin-2-yl)-7-[2-(2,2,2-trifluoroethoxy)phenyl] benzofuran-2-carboxamide], the EC50 stood at 0.023 nM. The result for `COc1ccc(C#N)cc1-c1cccc2cc(C(=O)N[C@@H]3CC[C@H](O)C3)oc12` [Compound 19, 7-(5-cyano-2-methoxyphenyl)-N-((1R,3S)-3-hydroxycyclopentyl)benzofuran-2-carboxamide] reads 0.26 nM; that for `O=C(NC12CCC(CO)(CC1)CC2)c1cc2cc(F)cc(-c3ccccc3OCC(F)(F)F)c2o1` [Compound 17, 5-fluoro-N-[4-(hydroxymethyl)-1-bicyclo[2.2.2]octanyl]-7-[2-(2,2,2-trifluoroethoxy)phenyl] benzofuran-2-carboxamide], 0.89 nM; that for `CC(CO)C12CC(NC(=O)c3cc4cccc(-c5ccccc5OCC(F)(F)F)c4o3)(C1)C2` (racemic) [Compound 9, (R and S)-N-[3-(2-hydroxy-1-methyl-ethyl)-1-bicyclo[1.1.1]pentanyl]-7-[2-(2,2,2-trifluoroethoxy)phenyl] benzofuran-2-carboxamide], 1.7 nM.

`CCCOc1ccccc1-c1cccc2cc(C(=O)NC3CNCCC3(F)F)oc12` (single isomer, unassigned) [Compound 36, (R or S)-N-(4,4-difluoro-3-piperidyl)-7-(2-propoxyphenyl)benzofuran-2-carboxamide] registered an EC50 of 1.4 nM. Compound `CC(C)Oc1ccc(C#N)cc1-c1cc(Cl)cc2cc(C(=O)N[C@H]3C[C@@H](O)C3)oc12` [Compound 24, Cis-5-chloro-7-(5-cyano-2-isopropoxy-phenyl)-N-(3-hydroxycyclobutyl) benzofuran-2-carboxamide] gave an EC50 of 0.044 nM.

Regarding `COc1ncc(Cl)cc1-c1cccc2cc(C(=O)NC34CCC(O)(CC3)C4)oc12` [Compound 8, 7-(5-chloro-2-methoxy-3-pyridyl)-N-(4-hydroxynorbornan-1-yl)benzofuran-2-carboxamide], the EC50 worked out at 1.1 nM. For `O=C(NC1CN2CCC1CC2)c1cc2cc(Cl)cc(-c3ccccc3OCCF)c2o1` (racemic) [Compound 20, (R and S)-5-chloro-7-[2-(2-fluoroethoxy)phenyl]-N-quinuclidin-3-yl-benzofuran-2-carboxamide], the EC50 worked out at 0.02 nM. Compound `N#Cc1ccc(Cl)c(-c2cccc3cc(C(=O)N[C@@H]4CC[C@H](O)C4)oc23)c1` [Compound 25, 7-(2-chloro-5-cyano-phenyl)-N-[(1R,3S)-3-hydroxycyclopentyl] benzofuran-2-carboxamide] gave an EC50 of 0.047 nM. In the case of `O=C(Nc1cccnc1)c1cc2cccc(-c3ccccc3OCC(F)(F)F)c2o1` [Compound 7, N-(3-pyridyl)-7-[2-(2,2,2-trifluoroethoxy)phenyl] benzofuran-2-carboxamide], the half-maximal effective concentration (EC50) stood at 0.99 nM. `COc1ccc(C#N)cc1-c1cccc2cc(C(=O)NC34CCC(O)(CC3)C4)oc12` [Compound 3, 7-(5-cyano-2-methoxy-phenyl)-N-(4-hydroxynorbornan-1-yl)benzofuran-2-carboxamide] returned an EC50 of 0.097 nM.
